Here are results for four compounds from ChEMBL document CHEMBL3608230, “Design, synthesis and RON receptor tyrosine kinase inhibitory activity of new head groups analogs of LCRF-0004” (Bioorg Med Chem Lett, 2015).

The target of assay [1] is Macrophage-stimulating protein receptor (Homo sapiens, UniProt Q04912). Nature of the assay: Inhibition of human RON.
In assay [2] the target is Hepatocyte growth factor receptor (Homo sapiens, UniProt P08581). Nature of the assay: Inhibition of c-Met phosphorylation in human MKN45 cells. The assay is classed as cell-based, MKN-45.
Hepatocyte growth factor receptor, sequence (P08581 whole entry): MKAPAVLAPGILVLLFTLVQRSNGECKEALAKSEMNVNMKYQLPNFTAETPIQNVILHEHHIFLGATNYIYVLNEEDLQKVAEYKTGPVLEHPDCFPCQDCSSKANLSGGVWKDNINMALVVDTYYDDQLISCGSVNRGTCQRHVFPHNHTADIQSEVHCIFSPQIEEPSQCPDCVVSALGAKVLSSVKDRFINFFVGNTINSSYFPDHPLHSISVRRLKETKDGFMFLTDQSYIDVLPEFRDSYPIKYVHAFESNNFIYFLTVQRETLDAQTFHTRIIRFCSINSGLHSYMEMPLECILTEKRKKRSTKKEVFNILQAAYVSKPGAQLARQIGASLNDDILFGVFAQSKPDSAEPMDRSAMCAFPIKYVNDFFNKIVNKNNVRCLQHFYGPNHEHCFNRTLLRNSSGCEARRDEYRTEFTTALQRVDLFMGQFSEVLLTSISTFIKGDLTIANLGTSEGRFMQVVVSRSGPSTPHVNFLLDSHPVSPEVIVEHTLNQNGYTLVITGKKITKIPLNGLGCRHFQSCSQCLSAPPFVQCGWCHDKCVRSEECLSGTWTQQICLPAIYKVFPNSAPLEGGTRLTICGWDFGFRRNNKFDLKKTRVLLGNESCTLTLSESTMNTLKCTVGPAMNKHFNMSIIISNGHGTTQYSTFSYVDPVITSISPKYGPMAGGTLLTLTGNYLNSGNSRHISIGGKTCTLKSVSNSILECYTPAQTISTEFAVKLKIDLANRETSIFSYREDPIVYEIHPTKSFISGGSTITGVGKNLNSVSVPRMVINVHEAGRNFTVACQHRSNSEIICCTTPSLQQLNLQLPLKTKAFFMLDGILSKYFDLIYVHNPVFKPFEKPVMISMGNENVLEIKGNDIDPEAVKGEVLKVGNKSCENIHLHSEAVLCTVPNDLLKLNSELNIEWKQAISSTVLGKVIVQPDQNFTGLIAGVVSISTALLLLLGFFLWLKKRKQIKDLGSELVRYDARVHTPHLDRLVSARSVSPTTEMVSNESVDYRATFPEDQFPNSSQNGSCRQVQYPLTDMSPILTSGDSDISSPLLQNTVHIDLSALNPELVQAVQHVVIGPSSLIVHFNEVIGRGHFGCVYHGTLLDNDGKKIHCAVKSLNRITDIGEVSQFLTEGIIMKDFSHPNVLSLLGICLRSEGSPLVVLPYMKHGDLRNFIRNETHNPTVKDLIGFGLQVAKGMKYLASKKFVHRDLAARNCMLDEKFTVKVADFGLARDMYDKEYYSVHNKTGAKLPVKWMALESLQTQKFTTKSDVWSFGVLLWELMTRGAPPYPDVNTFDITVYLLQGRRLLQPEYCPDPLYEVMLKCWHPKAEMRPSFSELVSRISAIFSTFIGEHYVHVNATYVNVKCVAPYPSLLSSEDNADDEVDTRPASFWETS

Macrophage-stimulating protein receptor, sequence (Q04912 25-304 limits assumed): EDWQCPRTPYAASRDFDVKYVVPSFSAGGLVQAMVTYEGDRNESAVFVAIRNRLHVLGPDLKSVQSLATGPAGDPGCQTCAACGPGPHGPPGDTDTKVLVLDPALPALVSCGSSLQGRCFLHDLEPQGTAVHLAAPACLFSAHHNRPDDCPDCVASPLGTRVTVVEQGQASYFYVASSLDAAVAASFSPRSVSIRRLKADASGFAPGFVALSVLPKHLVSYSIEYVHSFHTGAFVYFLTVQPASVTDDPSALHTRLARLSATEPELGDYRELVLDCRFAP
Macrophage-stimulating protein receptor, sequence (Q04912 310-1400 limits assumed): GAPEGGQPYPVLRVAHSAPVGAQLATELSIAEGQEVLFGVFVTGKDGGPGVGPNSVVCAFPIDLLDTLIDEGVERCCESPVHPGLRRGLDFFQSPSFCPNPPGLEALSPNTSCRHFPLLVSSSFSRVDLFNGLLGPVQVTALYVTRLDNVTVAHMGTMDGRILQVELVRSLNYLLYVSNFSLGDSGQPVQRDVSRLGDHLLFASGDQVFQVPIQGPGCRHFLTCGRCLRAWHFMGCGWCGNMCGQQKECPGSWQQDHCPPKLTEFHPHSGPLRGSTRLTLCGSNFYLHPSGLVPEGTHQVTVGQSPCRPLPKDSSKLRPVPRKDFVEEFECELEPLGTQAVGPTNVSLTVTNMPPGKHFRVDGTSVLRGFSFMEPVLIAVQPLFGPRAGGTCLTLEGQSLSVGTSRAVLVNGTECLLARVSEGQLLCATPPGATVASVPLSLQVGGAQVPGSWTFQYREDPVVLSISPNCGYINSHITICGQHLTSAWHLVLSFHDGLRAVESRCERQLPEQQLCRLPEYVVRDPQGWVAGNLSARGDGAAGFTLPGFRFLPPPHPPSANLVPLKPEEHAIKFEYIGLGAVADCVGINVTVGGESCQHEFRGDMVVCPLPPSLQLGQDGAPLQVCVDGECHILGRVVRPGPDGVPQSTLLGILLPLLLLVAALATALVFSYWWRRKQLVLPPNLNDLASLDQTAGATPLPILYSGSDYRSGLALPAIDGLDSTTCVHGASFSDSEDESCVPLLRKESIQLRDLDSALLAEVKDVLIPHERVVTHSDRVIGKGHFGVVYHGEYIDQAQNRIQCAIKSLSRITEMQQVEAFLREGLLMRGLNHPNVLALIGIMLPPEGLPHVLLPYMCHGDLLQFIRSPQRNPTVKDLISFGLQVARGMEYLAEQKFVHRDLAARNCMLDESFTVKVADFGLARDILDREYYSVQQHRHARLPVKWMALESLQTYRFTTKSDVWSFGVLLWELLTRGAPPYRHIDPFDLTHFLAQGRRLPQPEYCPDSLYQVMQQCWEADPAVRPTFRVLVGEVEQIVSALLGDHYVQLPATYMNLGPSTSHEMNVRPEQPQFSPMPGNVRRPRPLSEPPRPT

`Cn1cnc(-c2cc3nccc(Oc4ccc(NC(=O)c5cc(-c6ccccc6)n(-c6ccccc6)c5)cc4F)c3s2)c1` yielded an IC50 in assay [1] of 101 nM. `COc1ccc(-c2c(C(=O)Nc3ccc(Oc4ccnc5cc(-c6cn(C)cn6)sc45)c(F)c3)cnn2-c2ccccc2)cc1` displayed an IC50 in assay [2] greater than 10000 nM. On the same count and under the same terms, the figure for `Cn1cnc(-c2cc3nccc(Oc4ccc(NC(=O)c5cnn(-c6ccccc6)c5-c5ccncc5)cc4F)c3s2)c1` is greater than 10000 nM.

Turning to `COc1cccc(-c2c(C(=O)Nc3ccc(Oc4ccnc5cc(-c6cn(C)cn6)sc45)c(F)c3)cnn2-c2ccccc2)c1`, half-maximal inhibition in assay [1] (IC50) was put at 27 nM.
